Results: ChEMBL document CHEMBL5579815, “Novel angiogenesis inhibitors with superoxide anion radical amplification effect: Surmounting the Achilles' heels of angiogenesis inhibitors and photosensitizers” (Eur J Med Chem, 2024)
Activity calls are given as the source filed them. The rule behind the calls is not given here.

How the values were obtained:
A549 [1] = experiment: (§1) Cytotoxicity against human A549 cells assessed as reduction in cell viability at 0.008 to 1 uM preincubated for 24 hrs under normoxic condition followed by media removal and irradiated with 650 nm 10 mW/cm2 light for 15 mins under normoxic condition prior to media replacement and measured after 24 hrs by MTT assay; format: functional, cell-based; conditions: dose 0.008-1 µM
SK-MEL-28 [2] = experiment: (§2) Induction of apoptosis in human SK-MEL-28 cells assessed as necrotic cells at 1 uM preincubated for 24 hrs under hypoxic condition followed by media removal and irradiated with 650 nm 10 mW/cm2 light for 15 mins under hypoxic condition by Annexin V-FITC/propidium iodide staining based flow cytometry (reference value: 2.63%); format: functional
SK-MEL-28 [3] = experiment: as §2, with “at 0.5” for “at 1”; format: functional
U-87 MG [4] = experiment: as §1, with “U87” for “A549”; format: functional, cell-based; conditions: U-87MG ATCC, dose 0.008-1 µM
SK-MEL-28 [5] = experiment: as §2, with “normoxic” for “hypoxic”; format: functional
SK-MEL-28 [6] = experiment: as §2, with “as viable” for “as necrotic”, “at 2” for “at 1”, “under normoxic” for “under hypoxic”, “value: 93.62%)” for “value: 2.63%)”; format: functional; conditions: SK-MEL-28, light or radiation study, read-out: Activity
SK-MEL-28 [7] = experiment: Induction of apoptosis in human SK-MEL-28 cells preincubated for 24 hrs under normoxic condition followed by media removal and irradiated with 650 nm 10 mW/cm2 light for 15 mins under normoxic condition by Annexin V-FITC/propidium iodide staining based flow cytometry; format: functional, cell-based; conditions: dose 0.5-2 µM
SK-MEL-28 [8] = experiment: Induction of ROS generation in human SK-MEL-28 cells at 1 uM incubated for 24 hrs under hypoxic condition prior to DHE addition for 30 mins followed by media removal and irradiated with 650 nm 10 mW/cm2 light for 15 mins under hypoxic condition by DAPI staining based fluorescence microscopy; format: functional, cell-based
[9] = Drug uptake in human SK-MEL-28 cells at 1 uM measured after 24 hrs by flow cytometry; format: ADME, cell-based; conditions: sk-mel-28, 24 h
SK-MEL-28 [10] = experiment: as §2, with “as early apoptotic” for “as necrotic”, “at 0.5” for “at 1”, “value: 1.8%)” for “value: 2.63%)”; format: functional
SK-MEL-28 [11] = experiment: as §2, with “as late apoptotic” for “as necrotic”, “at 2” for “at 1”, “under normoxic” for “under hypoxic”, “value: 1.95%)” for “value: 2.63%)”; format: functional
SK-MEL-28 [12] = experiment: as §2, with “viable” for “necrotic”, “93.62%)” for “2.63%)”; format: functional; conditions: SK-MEL-28, light or radiation study, read-out: Activity
EA.hy 926 [13] = experiment: as §1, with “Antiangiogenic activity in” for “Cytotoxicity against”, “EA.hy 926” for “A549”; format: functional, cell-based; conditions: dose 0.008-1 µM
[14] = Drug uptake in HEK293 cells at 1 uM measured after 24 hrs by flow cytometry; format: ADME, cell-based; conditions: human, hek293, 24 h
[15] = Induction of ROS generation in methanol solution assessed as reduction in DPBF absorption peak at 10 uM irradiated with 650 nm 10 mW/cm2 light for upto 9 mins by DPBF probe based UV-vis absorption spectra analysis; format: functional
SK-MEL-28 [16] = experiment: as §2, with “early apoptotic” for “necrotic”, “1.8%)” for “2.63%)”; format: functional
SK-MEL-28 [17] = experiment: as §2, with “late apoptotic” for “necrotic”, “normoxic” for “hypoxic”, “1.95%)” for “2.63%)”; format: functional
SK-MEL-28 [18] = experiment: Induction of ROS generation in human SK-MEL-28 cells at 1 uM incubated for 24 hrs under normoxic condition prior to DHE addition for 30 mins followed by media removal and irradiated with 650 nm 10 mW/cm2 light for 15 mins under normoxic condition by DAPI staining based fluorescence microscopy; format: functional, cell-based
SK-MEL-28 [19] = experiment: as §2, with “as viable” for “as necrotic”, “at 0.5” for “at 1”, “value: 93.62%)” for “value: 2.63%)”; format: functional; conditions: SK-MEL-28, light or radiation study, read-out: Activity
SK-MEL-28 [20] = experiment: as §2, with “as early apoptotic” for “as necrotic”, “at 0.5” for “at 1”, “under normoxic” for “under hypoxic”, “value: 1.8%)” for “value: 2.63%)”; format: functional
SK-MEL-28 [21] = experiment: as §2, with “as viable” for “as necrotic”, “at 0.5” for “at 1”, “under normoxic” for “under hypoxic”, “value: 93.62%)” for “value: 2.63%)”; format: functional; conditions: SK-MEL-28, light or radiation study, read-out: Activity
[22] = Dark toxicity in human SK-MEL-28 cells assessed as reduction in cell viability by MTT assay; format: cell-based
SK-MEL-28 [23] = experiment: as §2, with “as late apoptotic” for “as necrotic”, “at 0.5” for “at 1”, “under normoxic” for “under hypoxic”, “value: 1.95%)” for “value: 2.63%)”; format: functional
EA.hy 926 [24] = experiment: as §1, with “Antiangiogenic activity in” for “Cytotoxicity against”, “EA.hy 926” for “A549”, “hypoxic” for “normoxic”; format: functional, cell-based; conditions: dose 0.008-1 µM
SK-MEL-28 [25] = experiment: as §2, with “at 2” for “at 1”, “under normoxic” for “under hypoxic”; format: functional
A549 [26] = experiment: as §1, with “hypoxic” for “normoxic”; format: functional, cell-based; conditions: dose 0.008-1 µM
SK-MEL-28 [27] = experiment: as §2, with “early apoptotic” for “necrotic”, “normoxic” for “hypoxic”, “1.8%)” for “2.63%)”; format: functional
U-87 MG [28] = experiment: as §1, with “U87” for “A549”, “hypoxic” for “normoxic”; format: functional, cell-based; conditions: U-87MG ATCC, dose 0.008-1 µM
SK-MEL-28 [29] = experiment: Induction of apoptosis in human SK-MEL-28 cells preincubated for 24 hrs under hypoxic condition followed by media removal and irradiated with 650 nm 10 mW/cm2 light for 15 mins under hypoxic condition by Annexin V-FITC/propidium iodide staining based flow cytometry; format: functional, cell-based; conditions: dose 0.5-2 µM
SK-MEL-28 [30] = experiment: as §2, with “viable” for “necrotic”, “normoxic” for “hypoxic”, “93.62%)” for “2.63%)”; format: functional; conditions: SK-MEL-28, light or radiation study, read-out: Activity
[31] = Induction of ROS generation in methanol solution assessed as increase in singlet oxygen level by measuring reduction in ABDA absorption peak at 10 uM irradiated with 650 nm 10 mW/cm2 light for upto 9 mins by ABDA probe based UV-vis absorption spectra analysis; format: functional
SK-MEL-28 [32] = experiment: as §2, with “as early apoptotic” for “as necrotic”, “at 2” for “at 1”, “value: 1.8%)” for “value: 2.63%)”; format: functional

Drug uptake [9]: Active
Drug uptake [14]: Active
SMILES: CCN(CC)c1ccc2nc3c4ccccc4/c(=N\CCCCCCNC(=O)c4cc(Oc5ccc(NC(=O)Nc6ccc(Cl)c(C(F)(F)F)c6)cc5)ccn4)cc-3sc2c1
Activity (A549 [1]): Active
Activity (SK-MEL-28 [2]): 19.45%
Activity (SK-MEL-28 [3]): 11.5%
Activity (U-87 MG [4]): Active
Activity (SK-MEL-28 [5]): 23.01%
viability at 2 µM (SK-MEL-28 [6]): 27.2%
Activity (SK-MEL-28 [7]): Dose-Dependent Effect
Activity (SK-MEL-28 [8]): Active
Activity (SK-MEL-28 [10]): 3.13%
Activity (SK-MEL-28 [11]): 26.72%
viability at 1 µM (SK-MEL-28 [12]): 69%
Activity (EA.hy 926 [13]): Active
Activity [15]: Active
Activity (SK-MEL-28 [16]): 3.97%
Activity (SK-MEL-28 [17]): 8.8%
Activity (SK-MEL-28 [18]): Active
viability at 0.5 µM (SK-MEL-28 [19]): 78.3%
Activity (SK-MEL-28 [20]): 12.86%
viability at 0.5 µM (SK-MEL-28 [21]): 73.2%
IC50 [22]: > 10 µM
Activity (SK-MEL-28 [23]): 2.86%
Activity (EA.hy 926 [24]): Active
Activity (SK-MEL-28 [25]): 6.54%
Activity (A549 [26]): Active
Activity (SK-MEL-28 [27]): 3.59%
Activity (U-87 MG [28]): Active
Activity (SK-MEL-28 [29]): Dose-Dependent Effect
viability at 1 µM (SK-MEL-28 [30]): 64.6%
Activity [31]: inactive
Activity (SK-MEL-28 [32]): 10.55%
